Holding throughout (type): cell-based
For one experiment, the system named is HIV-1NL4-3 K103N-Y181C. As to the kind of experiment: Luminescence reduction assay, MT4 cells infected with HIV-1NL4-3 luciferase reporter virus, RT mutant K103N-Y181C. The settings on record: Human immunodeficiency virus 1, MT4, read-out: EC50 (μM) MT4 Cells HIV-1NL4-3 K103N-Y181C 2% FCS, MT4 cells, HIV-1NL4-3 K103N-Y181C, 2% FCS. The text has this:
(§1) For this assay, HIV-1NL4-3 reporter viruses are used, which carry the luciferase164 gene (lu164) instead of the nef gene. The viruses are generated by transfection of 293T cells with the corresponding proviral pNL4-3 plasmid (Lipofectamine Reagent, Invitrogen, Karlsruhe, Germany). Starting from the proviral plasmid-DNA, viruses with defined resistance mutations in the reverse transcriptase gene are produced with the “QuikChange II XL Site-Directed Mutagenesis Kit” (Stratagene, Cedar Creek, Tex., USA). Among other things, the following mutations are generated: A98G, A98G-K103N-V108I, A98S, F227C, F227L, G190A, G190S, K101E, K101Q-K103N, K103N, K103N-F227L, K103N-G190A, K103N-G190S, K103N-M230L, K103N-N348I, K103N-P225H, K103N-V108I, K103N-V108I-P225H, K103N-V179F-Y181C, K103N-Y181C, K103N-Y181C-G190A, L100I, L100I-K103N, L100I-K103N-V179I-Y181C, L100I-K103N-Y181C, L234I, N348I, P225H, P236L, V106A, V106A-E138K, V106A-F227C, V106A-F227L, V106I, V106I-Y188L, V106M, V108I, V179F-Y181C, V179I, V179I-Y181C, Y181C, Y181C-G190A, Y181C-M230L, Y181I, Y188L. MT4 cells infected with these reporter viruses (NIH AIDS Research and Reference Reagent Program) secrete luciferase into the medium, which makes possible the luminometric quantification of the virus replication.
(§2) For the batch of a 96-well MTP, 3 million MT4 cells are pelletized, suspended in 1 ml of RPMI 1640 medium without phenol red (Invitrogen, Karlsruhe, Germany)/10% FCS/2 mmol of L-glutamine/1% Pen/Strep (Invitrogen, Karlsruhe, Germany), and incubated together with a suitable amount of the corresponding HIV-1NL4-3 reporter virus for 2 hours at 37° C. (pellet infection). Non-adsorbed viruses are then washed out with PBS, the infected cells are pelletized again, and suspended in 8 ml of RPM 11640 medium without phenol red/2% or 10% FCS/2 mmol of L-glutamine/1% Pen/Strep. Therefrom, 80 μl per well is pipetted into a white 96-well MTP in 20 μl of test substance in a suitable dilution. In order to avoid boundary effects, the edge wells of the MTP are not used for substance dilutions. The second vertical row of the MTP contains only infected cells (virus control), and the eleventh vertical row contains only non-infected cells (cell control) in each case in RPMI 1640 medium without phenol red/2% or 10% FCS/2 mmol of L-glutamine/1% Pen/Strep. The other wells of the MTP contain the compounds according to the invention in different concentrations starting from the third vertical row, from which dilution of the test substances is carried out 3^7 times in three steps up to the tenth vertical row. The test substances are dissolved in DMSO, whereby the DMSO final concentration in the test batch is ultimately 1%. The test batches are incubated for 5 days at 37° C./5% CO2, and are luminometrically evaluated after the addition of 15 μl of Lu164-buffer (65 mmol of NaCl, 300 mmol of MES, pH 5.8, 5 mmol of glutathione and 1:200 coelenterazine (5 mg/ml in 30 μM of glutathione/DMSO) (P.J.K. GmbH, Kleinblittersdorf, Germany)). In the virus control, the resulting values are in the range of 1 million RLUs (relative light units), and in the cell control, the resulting values are 300 to 400 RLUs. The EC50 values of the test substances are determined as the concentration of the treated infected cells, in which the virus replication measured in RLUs is 50% of the untreated infected cells.

The next experiment relates to HIV-1NL4-3 Wild Type. As to the kind of experiment: Luminescence reduction assay, MT4 cells infected with HIV-1NL4-3 luciferase reporter virus, wild type. The settings on record: Human immunodeficiency virus 1, MT4, MT4 cells, 2% FCS.
Source text: as §1, §2
A general note: A reporter such as luciferase makes a cellular process visible.

A further experiment relates to HIV-1LAI Wild Type. Briefly: AlamarBlue viability assay, HIV-1LAI-infected MT4 cells. The settings on record: Human immunodeficiency virus 1, MT4, MT4 cells, 10% FCS. The method, then:
For the batch of a 96-well MTP, 3 million PBLs are pelletized, suspended in 1 ml of RPMI 1640 medium/10% FCS/2 mmol of L-glutamine/1% Pen/Strep, and incubated together with a suitable amount of HIV-1LA1 (NIH AIDS Research & Reference Reagent Program, Germantown, USA) for 2 hours at 37° C. (pellet infection). Non-adsorbed viruses are then washed out with PBS, the infected cells are pelletized again, and suspended in 18 ml of RPMI 1640 medium/10% FCS/2 mmol of L-glutamine/1% Pen/Strep/interleukin-2 (40 U/ml). Therefrom, 180 μl per well is pipetted into a white 96-well MTP in 20 μl of test substance in a suitable dilution. As an alternative, after preparation of the substance dilutions, the HIV is added by pipetting in the MTP together with the cells and is no longer washed out (supernatant infection). In order to avoid boundary effects, the edge wells of the MTP are not used for substance dilutions. The second vertical row of the MTP contains only infected cells (virus control), and the eleventh vertical row contains only non-infected cells (cell control) in each case in RPMI 1640 medium/10% FCS/2 mmol of L-glutamine/1% Pen/Strep/interleukin-2 (40 U/ml). The other wells of the MTP contain the compounds according to the invention in different concentrations starting from the third vertical row, from which dilution of the test substances is carried out 3^7 times in three steps up to the tenth vertical row. The test substances are dissolved in DMSO, whereby the DMSO final concentration in the test batch is ultimately 1%. The test batches are incubated at 37° C./5% CO2. After 5 and 7 days, in each case 50 μl of cell-free supernatant is drawn off from each well in order to determine the amount of p24 contained by means of p24 ELISA (HIV-1 p24^CA Antigen Capture Assay Kit, NCI-Frederick Cancer Research and Development Center, Frederick, USA). From the resulting values of the photometric analysis (450/620 nm), the EC50 values of the test substances are determined as the concentration of the treated infected cells, in which the amount of p24 is 50% of the untreated infected cells.
As an alternative, MT4 cells are used for testing test substances instead of PBLs. HIV-1LA1-infected MT4 cells (MOI 0.01, supernatant infection) are incubated according to the above-described pattern in RPMI 1640 medium with 2% or 10% FCS/2 mmol of L-glutamine/1% Pen/Strep in the presence of test substances for 5 days at 37° C./5% CO2 (20 μl of substance dilution and 80 μl of cells/virus per well). Then, 10 μl of AlamarBlue (Invitrogen, Karlsruhe, Germany) is added to each well, and MTPs are incubated for 3 hours at 37° C., before the fluorimetric analysis is done (544/590 nm). The resulting values are approximately 30,000 in the case of untreated, non-infected cells, and approximately 6,000 in the case of untreated infected cells. In the low concentration range, the EC50 values of the test substances are determined as the concentration of the treated infected cells, in which the fluorescence is 50% of the untreated non-infected cells (in each case relative to the values of the untreated infected cells). In addition, in the high concentration range, the CC50 values of the test substances are determined as the concentration of the treated infected cells, in which the fluorescence is 50% of the untreated, non-infected cells (in each case relative to the values of the untreated infected cells).
In general terms: The colour change of resazurin is a common sign of viable cells or microbes.

The term EC50 denotes the concentration giving half of the maximal effect.

With `O=C1CN(C(=O)c2cc(-c3cc(F)cc(Cl)c3)n(-c3ccnc(Cl)c3)n2)CCN1` [Example 15, 4-{[5-(3-Chloro-5-fluorophenyl)-1-(2-chloropyridin-4-yl)-1H-pyrazol-3-yl]carbonyl}piperazin-2-one], the EC50 was 0.452 µM with HIV-1NL4-3 K103N-Y181C, 0.018 µM in the experiment with HIV-1NL4-3 Wild Type and 0.151 µM in the experiment on HIV-1LAI Wild Type.
With `O=C1CN(C(=O)c2cc(-c3cc(Br)cc(OC(F)(F)F)c3)n(-c3ccc(F)nc3)n2)CCN1` [Example 40, 4-({5-[3-Bromo-5-(trifluoromethoxy)phenyl]-1-(6-fluoropyridin-3-yl)-1H-pyrazol-3-yl}carbonyl)piperazin-2-one], the figures for the 50% effective concentration (EC50) in the experiment with HIV-1NL4-3 K103N-Y181C, in the experiment with HIV-1NL4-3 Wild Type and in the experiment with HIV-1LAI Wild Type were 0.044 µM, 0.013 µM and 0.213 µM, respectively.
The corresponding values for `O=C1CN(C(=O)c2cc(-c3cc(F)cc(Br)c3)n(-c3cccnc3)n2)CN1` [Example 90, 1-{[5-(3-Bromo-5-fluorophenyl)-1-(pyridin-3-yl)-1H-pyrazol-3-yl]carbonyl}imidazolidin-4-one] are 0.033 µM, 0.003 µM and 0.011 µM.
The corresponding values for `O=C1CN(C(=O)c2cc(-c3cc(F)cc(OC(F)(F)F)c3)n(-c3ccnc(Cl)c3)n2)CN1` [Example 62, 1-({1-(2-Chloropyridin-4-yl)-5-[3-fluoro-5-(trifluoromethoxy)phenyl]-1H-pyrazol-3-yl}carbonyl)imidazolidin-4-one] are 0.066 µM, 0.044 µM and 0.352 µM.
The corresponding values for `O=C1CN(C(=O)c2cc(-c3cnc(F)c(Cl)c3)n(-c3cccc(Cl)c3)n2)CN1` [Example 110, 1-{[5-(5-Chloro-6-fluoropyridin-3-yl)-1-(3-chlorophenyl)-1H-pyrazol-3-yl]carbonyl}imidazolidin-4-one] are 0.039 µM, 0.024 µM and 0.025 µM.
Consider `O=C1CN(C(=O)c2cc(-c3cncc(C(F)(F)F)c3)n(-c3ccc(F)c(Cl)c3)n2)CCN1` [Example 107], for which the half-maximal effective concentration (EC50) in the experiment with HIV-1NL4-3 K103N-Y181C stood at 1.28 µM; in the experiment with HIV-1NL4-3 Wild Type, 0.299 µM; in the experiment on HIV-1LAI Wild Type, 0.263 µM.
The like results for `N#Cc1cc(OC(F)(F)F)cc(-c2cc(C(=O)N3CNC(=O)C3)nn2-c2cccnc2)c1` [Example 88, 3-{3-[(4-Oxoimidazolidin-1-yl)carbonyl]-1-(pyridin-3-yl)-1H-pyrazol-5-yl}-5-(trifluoromethoxy)benzonitrile] were, in that order, 0.026 µM, 0.015 µM and 0.186 µM.
The corresponding values for `O=C(c1cc(-c2cc(Br)cc(OC(F)(F)F)c2)n(-c2ccc(Cl)nc2)n1)N1CC[S+]([O-])C1` (racemic) [Example 37, {5-[3-Bromo-5-(trifluoromethoxy)phenyl]-1-(6-chloropyridin-3-yl)-1H-pyrazol-3-yl}(1-oxido-1,3-thiazolidin-3-yl)methanone] are 0.005 µM, 0.004 µM and 2.32 µM.
The like results for `O=C1CN(C(=O)c2cc(-c3cc(Br)cc(OC(F)(F)F)c3)n(-c3ccccn3)n2)CN1` [Example 26, 1-({5-[3-Bromo-5-(trifluoromethoxy)phenyl]-1-(pyridin-2-yl)-1H-pyrazol-3-yl}carbonyl)imidazolidin-4-one] were, in that order, 0.071 µM, 0.12 µM and over 3.3 µM.
As to `O=C(c1cc(-c2cc(Br)cc(OC(F)(F)F)c2)n(-c2ccnc(C(F)(F)F)c2)n1)N1CCSC1` [Example 117, {5-[3-Bromo-5-(trifluoromethoxy)phenyl]-1-[2-(trifluoromethyl)pyridin-4-yl]-1H-pyrazol-3-yl}(1,3-thiazolidin-3-yl)methanone], the concentration for a half-maximal effect (EC50) with HIV-1NL4-3 K103N-Y181C is at least 3.3 µM; in the experiment with HIV-1NL4-3 Wild Type it was 1.28 µM; with HIV-1LAI Wild Type, over 3.3 µM.
As for `O=C1CN(C(=O)c2cc(-c3ccnc(Cl)c3)n(-c3cccc(Cl)c3)n2)CN1` [Example 114, 1-{[1-(3-Chlorophenyl)-5-(2-chloropyridin-4-yl)-1H-pyrazol-3-yl]carbonyl}imidazolidin-4-one], the figures for the EC50 in the experiment with HIV-1NL4-3 K103N-Y181C, in the experiment with HIV-1NL4-3 Wild Type and in the experiment with HIV-1LAI Wild Type were 0.171 µM, 0.007 µM and 0.063 µM, respectively.
With `O=C1CN(C(=O)c2cc(-c3cc(Cl)cc(OC(F)F)c3)n(-c3cccnc3)n2)CN1` [Example 81, 1-({5-[3-Chloro-5-(difluoromethoxy)phenyl]-1-(pyridin-3-yl)-1H-pyrazol-3-yl}carbonyl)imidazolidin-4-one], the EC50 came out at 0.008 µM with HIV-1NL4-3 K103N-Y181C, 0.003 µM in the experiment on HIV-1NL4-3 Wild Type and 0.015 µM in the experiment on HIV-1LAI Wild Type.
The corresponding values for `Cc1cc(-n2nc(C(=O)N3CC[S+]([O-])C3)cc2-c2cc(F)cc(Cl)c2)ccn1` (stereo not drawn) [Example 24, [5-(3-Chloro-5-fluorophenyl)-1-(2-methylpyridin-4-yl)-1H-pyrazol-3-yl](1-oxido-1,3-thiazolidin-3-yl)methanone] are over 3.3 µM, 0.066 µM and 0.668 µM.

For the origin of these results see US9296720B2, “Carboxamide-substituted heteroaryl-pyrazoles and the use thereof” (AiCuris GmbH & Co. KG, priority 2011, dated 2016).
